Holding throughout (type): in vivo
Experiment [1] has as its system AMAPA. In words: Pre-emergence biological efficacy. The note with it: Amaranthus palmeri, 312 h, evaluated after 13 days, read-out: damage to plant (100=total damage to plant; 0=no damage to plant). A digest of the protocol: (§1)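 Damage rated on a 0–100 scale (100 = total) 13 days after spraying in glasshouse conditions of 24/18° C., 15 h light, 50% humidity. Spray applied one day after sowing, using aqueous dilution in 0.2% Genapol XO80 of a 50 g/l IF50 solvent-emulsifier formulation, at the desired final dose.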

Experiment [2] deals with LOLPE. Nature of the experiment: Pre-emergence biological efficacy. The note with it: Lolium perenne, 312 h, evaluated after 13 days, read-out: damage to plant (100=total damage to plant; 0=no damage to plant). A digest of the protocol:
as §1

Experiment [3] concerns IPOHE. In words: Pre-emergence biological efficacy. The note with it: Ipomoea hederacea, 312 h, evaluated after 13 days, read-out: damage to plant (100=total damage to plant; 0=no damage to plant). A digest of the protocol:
as §1

Experiment [4] relates to EPHHL. In words: Pre-emergence biological efficacy. The note with it: Euphorbia heterophylla, 312 h, evaluated after 13 days, read-out: damage to plant (100=total damage to plant; 0=no damage to plant). A digest of the protocol: as §1
In experiment [5] the test system is SETFA. In words: Pre-emergence biological efficacy. The note with it: Setaria faberi, 312 h, evaluated after 13 days, read-out: damage to plant (100=total damage to plant; 0=no damage to plant). The method, boiled down:
as §1

Experiment [6] has as its system ECHCG. Nature of the experiment: Pre-emergence biological efficacy. The note with it: Echinochloa crus-galli, 312 h, evaluated after 13 days, read-out: damage to plant (100=total damage to plant; 0=no damage to plant). The method, boiled down: as §1
The test system of experiment [7] is AMAPA. Nature of the experiment: Post-emergence biological efficacy. The note with it: Amaranthus palmeri, 312 h, evaluated after 13 days, read-out: damage to plant (100=total damage to plant; 0=no damage to plant). A digest of the protocol: (§2)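 Plants grown 14 days in glasshouse, then sprayed post-emergence with compound formulated in IF50 and diluted in 0.2% Genapol XO80 to the desired dose. Damage scored after 13 days on a 0–100 scale (100 = total damage).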

In a further experiment the test system is ELEIN. Nature of the experiment: Post-emergence biological efficacy. The note with it: 312 h, evaluated after 13 days, read-out: damage to plant (100=total damage to plant; 0=no damage to plant). A digest of the protocol:
as §2

Experiment [8] concerns LOLPE. Nature of the experiment: Post-emergence biological efficacy. The note with it: Lolium perenne, 312 h, evaluated after 13 days, read-out: damage to plant (100=total damage to plant; 0=no damage to plant). The method, boiled down:
as §2

Experiment [9] deals with IPOHE. In words: Post-emergence biological efficacy. The note with it: Ipomoea hederacea, 312 h, evaluated after 13 days, read-out: damage to plant (100=total damage to plant; 0=no damage to plant). A digest of the protocol:
as §2

In experiment [10] the test system is EPHHL. Nature of the experiment: Post-emergence biological efficacy. The note with it: Euphorbia heterophylla, 312 h, evaluated after 13 days, read-out: damage to plant (100=total damage to plant; 0=no damage to plant). The method, boiled down:
as §2

For experiment [11], the system named is SETFA. Nature of the experiment: Post-emergence biological efficacy. The note with it: Setaria faberi, 312 h, evaluated after 13 days, read-out: damage to plant (100=total damage to plant; 0=no damage to plant). The method, boiled down:
as §2

Another experiment deals with CHEAL. Nature of the experiment: Post-emergence biological efficacy. The note with it: Chenopodium album, 312 h, evaluated after 13 days, read-out: damage to plant (100=total damage to plant; 0=no damage to plant). A digest of the protocol: as §2
Experiment [12] concerns ECHCG. Nature of the experiment: Post-emergence biological efficacy. The note with it: Echinochloa crus-galli, 312 h, evaluated after 13 days, read-out: damage to plant (100=total damage to plant; 0=no damage to plant). The method, boiled down:
as §2

The next experiment concerns DIGSA. In words: Post-emergence biological efficacy. The note with it: Digitaria sanguinalis, 312 h, evaluated after 13 days, read-out: damage to plant (100=total damage to plant; 0=no damage to plant). The method, boiled down: as §2

In the case of `CCOC(=O)C1(C)CC(c2cc(-c3nc(C)cnc3C)c(F)cc2Cl)=NO1` (stereo not drawn) [Compound 1-787, Ethyl 3-[2-chloro-5-(3,6-dimethylpyrazin-2-yl)-4-fluoro-phenyl]-5-methyl-4H-isoxazole-5-carboxylate], the pest or weed control at 250 g/ha in the experiment on AMAPA [1] is 10%; with LOLPE [2], 20%; in the experiment on IPOHE [3] it was 10%; in the experiment on EPHHL [4], 10%; with SETFA [5] it was 20%; with ECHCG [6], 20%. Moreover, the pest or weed control at 250 g/ha in the experiment on AMAPA [7] stood at 50%; in the experiment on ELEIN, 60%; in the experiment with LOLPE [8], 20%; with IPOHE [9], 50%; in the experiment on EPHHL [10] it was 40%; with SETFA [11], 40%. Besides, the pest or weed control at 250 g/ha in the experiment on CHEAL turned out to be 60%; with ECHCG [12], 40%; with DIGSA it was 40%.

Consider `CCOC(=O)C1(C)CC(c2cc(-c3ncc(C(F)(F)F)nc3Cl)c(F)cc2Cl)=NO1` (stereo not drawn) [Compound 1-811, Ethyl 3-[2-chloro-5-[3-chloro-5-(trifluoromethyl)pyrazin-2-yl]-4-fluoro-phenyl]-5-methyl-4H-isoxazole-5-carboxylate], for which the pest or weed control at 250 g/ha in the experiment on AMAPA [1] is 100%; in the experiment on LOLPE [2] it was 10%; in the experiment on IPOHE [3], 0%; with EPHHL [4] it was 100%; in the experiment on SETFA [5], 50%; in the experiment with ECHCG [6] it was 70%. The pest or weed control at 250 g/ha in the experiment with AMAPA [7] turned out to be 80%; in the experiment with ELEIN, 90%; in the experiment with LOLPE [8], 70%; with IPOHE [9] it was 70%; in the experiment on EPHHL [10] it was 80%; in the experiment on SETFA [11], 100%. Also, the pest or weed control at 250 g/ha with CHEAL came out at 60%; with ECHCG [12], 50%; with DIGSA, 40%.

On to `CCOC(=O)C1(C)CC(c2cc(-c3nccnc3C(F)(F)F)c(F)cc2Cl)=NO1` (stereo not drawn) [Compound 1-823, Ethyl 3-[2-chloro-4-fluoro-5-[3-(trifluoromethyl)pyrazin-2-yl]phenyl]-5-methyl-4H-isoxazole-5-carboxylate], for which the pest or weed control at 250 g/ha with AMAPA [1] was 0%; in the experiment with LOLPE [2], 20%; in the experiment on IPOHE [3] it was 90%; with EPHHL [4] it was 40%; in the experiment on SETFA [5] it was 20%; in the experiment on ECHCG [6] it was 20%. Also, the pest or weed control at 250 g/ha in the experiment with AMAPA [7] came to 60%; with ELEIN, 30%; in the experiment on LOLPE [8], 10%; with IPOHE [9], 60%; in the experiment on EPHHL [10] it was 60%; in the experiment on SETFA [11] it was 60%. The results for the pest or weed control at 250 g/ha in the experiment with CHEAL, in the experiment with ECHCG [12] and in the experiment with DIGSA were 60%, 70% and 50%, respectively.

Consider `CCOC(=O)C1(C)CC(c2cc(-c3cnc4c(c3)OC(F)(F)O4)ccc2C#N)=NO1` (stereo not drawn) [Compound 2-451, Ethyl 3-[2-cyano-5-(2,2-difluoro-[1,3]dioxolo[4,5-b]pyridin-6-yl)phenyl]-5-methyl-4H-isoxazole-5-carboxylate], for which the pest or weed control at 250 g/ha in the experiment with AMAPA [1] stood at 90%; in the experiment on LOLPE [2], 40%; in the experiment on IPOHE [3] it was 0%; in the experiment with EPHHL [4], 0%; in the experiment with SETFA [5], 70%; with ECHCG [6] it was 60%. For the same compound, the pest or weed control at 250 g/ha was 40% in the experiment on AMAPA [7]; 70% with ELEIN; 20% with LOLPE [8]; 30% with IPOHE [9]; 70% in the experiment with EPHHL [10]; 40% in the experiment on SETFA [11]. The pest or weed control at 250 g/ha in the experiment with CHEAL is 50%; with ECHCG [12] it was 30%; in the experiment with DIGSA it was 50%.

The values above are taken from patent US20240124432A1, “HERBICIDAL COMPOUNDS” (SYNGENTA CROP PROTECTION AG, priority 2020, published 2024).
